# Assay results as given in patent US20140051679A1, “KINASE INHIBITORS AND METHOD OF TREATING CANCER WITH SAME” (UNIVERISTY HEALTH NETWORKS, priority 2011, published 2014).
# Experiments:
# [1] = tested on: HCT116 colon cancer cells; test: Cell growth inhibition, Sulforhodamine B assay, HCT116; type: cell-based; settings: Homo sapiens, HCT-116, 120 h, 5 days culture, SRB assay, read-out: Cell Line GI50 Range HCT116
# [2] = biological target: T1, human PLK4 (Homo sapiens, UniProt O00444); test: PLK4 inhibition assay (indirect ELISA); type: biochemical; settings: GST-PLK4 4 nM, 15 μM ATP; read-out: IC50 Ranges PLK4
# T1 construct: amino terminal GST fusion of residues 1-391 of human PLK4; made in house; host or cells: E. coli
# T1 sequence (O00444 1-391): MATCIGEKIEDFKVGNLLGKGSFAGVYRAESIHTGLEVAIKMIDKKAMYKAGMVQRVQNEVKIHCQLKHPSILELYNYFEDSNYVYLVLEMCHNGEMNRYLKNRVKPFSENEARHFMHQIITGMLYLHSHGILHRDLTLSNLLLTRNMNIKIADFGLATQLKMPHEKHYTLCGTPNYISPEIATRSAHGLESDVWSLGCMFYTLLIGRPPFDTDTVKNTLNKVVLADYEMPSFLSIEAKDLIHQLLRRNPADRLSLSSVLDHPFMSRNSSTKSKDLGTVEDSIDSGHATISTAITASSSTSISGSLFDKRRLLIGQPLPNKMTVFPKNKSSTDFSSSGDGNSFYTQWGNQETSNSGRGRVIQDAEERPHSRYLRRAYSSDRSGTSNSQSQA
# Method in brief: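 Dephosphorylated GST-tagged human PLK4 (residues 1-391, E. coli), 4 nM, preincubated 15 min with compound, then reacted 30 min with 15 μM ATP on MBP-coated plates (50 mM HEPES pH 7.5, 10 mM MgCl2, 0.01% Brij 35). Phospho-MBP detected by antibody ELISA at 450 nm. Tested at 10 μM or 10-point titrations; IC50 from 4-parameter logistic fit.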
# [3] = biological target: T2, human TTK (Homo sapiens, UniProt P33981); test: TTK inhibition assay (indirect ELISA); type: biochemical; settings: GST-TTK 0.68 nM, 16 μM ATP; read-out: IC50 Ranges TTK
# T2 construct: amino terminal GST fusion of full length human TTK; purchased Invitrogen
# T2 sequence (P33981 1-857): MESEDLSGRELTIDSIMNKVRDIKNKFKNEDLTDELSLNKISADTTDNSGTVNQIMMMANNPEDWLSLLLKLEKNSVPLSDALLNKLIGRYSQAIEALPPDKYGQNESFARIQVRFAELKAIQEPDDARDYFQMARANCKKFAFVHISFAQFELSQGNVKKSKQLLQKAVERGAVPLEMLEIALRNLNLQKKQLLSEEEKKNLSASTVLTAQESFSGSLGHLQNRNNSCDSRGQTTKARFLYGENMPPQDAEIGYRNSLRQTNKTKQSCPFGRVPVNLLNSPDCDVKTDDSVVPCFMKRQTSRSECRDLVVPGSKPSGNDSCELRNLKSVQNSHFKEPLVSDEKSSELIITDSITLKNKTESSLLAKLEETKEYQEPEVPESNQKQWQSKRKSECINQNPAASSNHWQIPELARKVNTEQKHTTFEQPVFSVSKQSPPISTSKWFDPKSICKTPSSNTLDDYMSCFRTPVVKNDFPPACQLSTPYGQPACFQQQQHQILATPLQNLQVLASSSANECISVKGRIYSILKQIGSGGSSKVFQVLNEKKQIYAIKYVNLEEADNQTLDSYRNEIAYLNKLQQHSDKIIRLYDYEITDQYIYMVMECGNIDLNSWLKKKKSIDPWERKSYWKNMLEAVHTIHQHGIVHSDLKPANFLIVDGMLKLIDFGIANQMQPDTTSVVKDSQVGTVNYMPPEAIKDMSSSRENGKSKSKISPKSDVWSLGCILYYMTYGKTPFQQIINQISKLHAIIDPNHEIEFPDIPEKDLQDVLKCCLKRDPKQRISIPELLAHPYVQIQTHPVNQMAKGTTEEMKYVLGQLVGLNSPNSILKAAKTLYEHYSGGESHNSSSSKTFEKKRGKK
# [4] = tested on: MDA-MB-231 breast cancer cells; test: Cell growth inhibition, Sulforhodamine B assay, MDA-MB-231; type: cell-based; settings: Homo sapiens, 120 h, 5 days culture, SRB assay, read-out: Cell Line GI50 Range MDA-MB-231
# [5] = biological target: T3, Aurora B (Homo sapiens, UniProt Q96GD4); test: Aurora B inhibition assay (Z-Lyte); type: biochemical; settings: 28 nM Aurora B, 128 μM ATP; read-out: IC50 Ranges Aurora B
# T3 construct: purchased Invitrogen PV3970
# Protocol: Aurora B inhibition was determined using the Z-Lyte assay kit from Invitrogen. The assay was performed using the recommended manufacturer's instructions with 128 μM ATP and 28 nM Aurora B (Invitrogen cat #PV3970). The % inhibition values were determined according to the manufacturer's directions and IC50 values were obtained using a non-linear 4 point logistic curve fit (XLfit4, IDBS)
# [6] = tested on: MDA-MB-468 breast cancer cells; test: Cell growth inhibition, Sulforhodamine B assay, MDA-MB-468; type: cell-based; settings: Homo sapiens, 120 h, 5 days culture, SRB assay, read-out: Cell Line GI50 Range MDA-MB-468
# [7] = tested on: OVCAR-3 ovarian cancer cells; test: Cell growth inhibition, Sulforhodamine B assay, OVCAR-3; type: cell-based; settings: Homo sapiens, 120 h, 5 days culture, SRB assay, read-out: Cell Line GI50 Range OVCAR-3
# [8] = tested on: HT29 colon cancer cells; test: Cell growth inhibition, Sulforhodamine B assay, HT29; type: cell-based; settings: Homo sapiens, HT-29, 120 h, 5 days culture, SRB assay, read-out: Cell Line GI50 Range HT29
# T3 sequence (Q96GD4 whole entry): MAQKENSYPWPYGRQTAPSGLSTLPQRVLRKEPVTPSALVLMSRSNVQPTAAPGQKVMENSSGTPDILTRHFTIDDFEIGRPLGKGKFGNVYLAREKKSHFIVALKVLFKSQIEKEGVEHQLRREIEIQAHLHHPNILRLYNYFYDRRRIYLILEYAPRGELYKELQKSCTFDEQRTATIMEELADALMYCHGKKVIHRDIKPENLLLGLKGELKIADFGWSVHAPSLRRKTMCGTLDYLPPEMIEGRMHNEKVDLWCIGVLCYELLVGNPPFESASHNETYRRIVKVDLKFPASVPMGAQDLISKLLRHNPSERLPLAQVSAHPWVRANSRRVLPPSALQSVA
SMILES,GI50 [1] [µM],IC50 [2] [µM],IC50 [3] [µM],GI50 [4] [µM],IC50 [5] [µM],GI50 [6] [µM],GI50 [7] [µM],GI50 [8] [µM]
"CN1CCOc2cc(-c3n[nH]c4ccc(NC(=O)C(c5ccsc5)N5CCCC5)cc34)ccc21 (stereo not drawn) [Example A17, N-(3-(4-methyl-3,4-dihydro-2H-benzo[b][1,4]oxazin-7-yl)-1H-indazol-5-yl)-2-(pyrrolidin-1-yl)-2-(thiophen-3-yl)acetamide]",≤ 5,≤ 5,≤ 5,≤ 5,≤ 5,≤ 5,,
"O=C(Nc1ccc2[nH]nc(-c3ccc4c(c3)OCCCO4)c2c1)C(c1ccsc1)N1CCCC1 (stereo not drawn) [Example A20, N-(3-(3,4-dihydro-2H-benzo[b][1,4]dioxepin-7-yl)-1H-indazol-5-yl)-2-(pyrrolidin-1-yl)-2-(thiophen-3-yl)acetamide]",≤ 5,≤ 5,≤ 5,≤ 5,≤ 5,≤ 5,,
"CN1CCC(Oc2ccc(-c3n[nH]c4ccc(C(=O)N[C@@H]5CCCc6ccccc65)cc34)cc2)CC1 [Example A26, (R)-3-(4-((1-methylpiperidin-4-yl)oxy)phenyl)-N-(1,2,3,4-tetrahydronaphthalen-1-yl)-1H-indazole-5-carboxamide]",≤ 5,≤ 5,≤ 5,≤ 5,,≤ 5,≤ 5,≤ 5
"C[C@H](NC(=O)c1ccc2[nH]nc(-c3ccc(N4CCOCC4)cc3)c2c1)C1CCCCC1 [Example A40, (S)—N-(1-cyclohexylethyl)-3-(4-morpholinophenyl)-1H-indazole-5-carboxamide]",≤ 5,≤ 5,≤ 5,≤ 5,,≤ 5,≤ 5,≤ 5
"CN1CCC(Oc2ccc(-c3n[nH]c4ccc(NC(=O)Nc5ccccc5F)cc34)cc2)CC1 [Example A56, 1-(2-fluorophenyl)-3-(3-(4-((1-methylpiperidin-4-yl)oxy)phenyl)-1H-indazol-5-yl)urea]",≤ 5,≤ 5,≤ 5,≤ 5,,≤ 5,5 to 20,≤ 5
"O=C(Nc1ccc2[nH]nc(-c3ccc(N4CCOCC4)c(F)c3)c2c1)C(c1ccsc1)N1CCCC1 (stereo not drawn) [Example A60, N-(3-(3-fluoro-4-morpholinophenyl)-1H-indazol-5-yl)-2-(pyrrolidin-1-yl)-2-(thiophen-3-yl)acetamide]",≤ 5,≤ 5,≤ 5,≤ 5,,≤ 5,5 to 20,≤ 5
"O=C(NC(c1ccccc1)C1CC1)c1ccc2[nH]nc(-c3cccc(N4CCOCC4)c3)c2c1 (stereo not drawn) [Example A61, N-(cyclopropyl(phenyl)methyl)-3-(3-morpholinophenyl)-1H-indazole-5-carboxamide]",≤ 5,≤ 5,≤ 5,5 to 20,,5 to 20,5 to 20,≤ 5

# Other lines, results leading:
GI50 [1] [µM],IC50 [2] [µM],IC50 [3] [µM],GI50 [4] [µM],IC50 [5] [µM],GI50 [6] [µM],GI50 [7] [µM],GI50 [8] [µM],SMILES
≤ 5,≤ 5,≤ 5,≤ 5,≤ 5,≤ 5,,,"COc1cc(-c2n[nH]c3ccc(C(=O)NC(c4ccccc4)C4CC4)cc23)ccc1OC1CCN(C)CC1 (stereo not drawn) [Example A19, N-(cyclopropyl(phenyl)methyl)-3-(3-methoxy-4-((1-methylpiperidin-4-yl)oxy)phenyl)-1H-indazole-5-carboxamide]"
≤ 5,≤ 5,≤ 5,≤ 5,≤ 5,≤ 5,,,"COc1cc(-c2n[nH]c3ccc(NC(=O)C(c4ccsc4)N4CCCC4)cc23)ccc1OC1CCN(C)CC1 (stereo not drawn) [Example A21, N-(3-(3-methoxy-4-((1-methylpiperidin-4-yl)oxy)phenyl)-1H-indazol-5-yl)-2-(pyrrolidin-1-yl)-2-(thiophen-3-yl)acetamide]"
≤ 5,≤ 5,≤ 5,≤ 5,5 to 50,≤ 5,,,"O=C(Nc1ccc2[nH]nc(-c3ccc(N4CCOCC4)cc3)c2c1)C1CCCc2ccccc21 (stereo not drawn) [Example A22, N-(3-(4-morpholinophenyl)-1H-indazol-5-yl)-1,2,3,4-tetrahydronaphthalene-1-carboxamide]"
≤ 5,≤ 5,≤ 5,≤ 5,,≤ 5,5 to 20,≤ 5,"C[C@@H](NC(=O)c1ccc2[nH]nc(-c3ccc(N4CCOCC4)cc3)c2c1)C1CCCCC1 [Example A48, (R)—N-(1-cyclohexylethyl)-3-(4-morpholinophenyl)-1H-indazole-5-carboxamide]"
≤ 5,≤ 5,≤ 5,≤ 5,,≤ 5,5 to 20,≤ 5,"C[C@@H](NC(=O)c1ccc2[nH]nc(-c3ccc(N4CCOCC4)cc3)c2c1)c1cccs1 [Example A53, (R)-3-(4-morpholinophenyl)-N-(1-(thiophen-2-yl)ethyl)-1H-indazole-5-carboxamide]"
≤ 5,≤ 5,≤ 5,≤ 5,,≤ 5,5 to 20,≤ 5,"Cc1cc(-c2n[nH]c3ccc(NC(=O)C(c4ccsc4)N4CCCC4)cc23)ccc1N1CCOCC1 (stereo not drawn) [Example A59, N-(3-(3-methyl-4-morpholinophenyl)-1H-indazol-5-yl)-2-(pyrrolidin-1-yl)-2-(thiophen-3-yl)acetamide]"
≤ 5,≤ 5,≤ 5,,,≤ 5,≤ 5,≤ 5,"O=C(Nc1ccc2[nH]nc(-c3ccc(NC4CCCC4)cc3)c2c1)C(c1ccsc1)N1CCCC1 (stereo not drawn) [Example A70, N-(3-(4-(cyclopentylamino)phenyl)-1H-indazol-5-yl)-2-(pyrrolidin-1-yl)-2-(thiophen-3-yl)acetamide]"
≤ 5,≤ 5,≤ 5,,≤ 5,≤ 5,5 to 20,≤ 5,"CN1CCC(Oc2ccc(-c3n[nH]c4ccc(NC(=O)Nc5c(Cl)cccc5Cl)cc34)cc2)CC1 [Example A76, 1-(2,6-dichlorophenyl)-3-(3-(4-((1-methylpiperidin-4-yl)oxy)phenyl)-1H-indazol-5-yl)urea]"
